Reference: US7964560B2, “Hepatitis C virus inhibitors” (Bristol-Myers Squibb Company, priority 2008, dated 2011)
pIC50: −log10 of the molar value. Like-named read-outs stand apart in the source and are kept apart here.

Columns and labels:
[1] = molecular target: T1, HCV NS3/4A protease complex, BMS strain (UniProt P27958, species not given/STRAIN_BMS); assay: FRET peptide assay to monitor HCV NS3/4A proteolytic activity (BMS strain); type: biochemical, Hepatitis C virus (genotype 1a); settings: Table 2, NS3/4A BMS strain, numeric values
T1 construct: said of H77 and J4L6S; fused on or other part: three-lysine solubilising tail at the end of NS4A (printed for the H77 and J4L6S constructs; probably the same for BMS)
Source text: (§1) HCV […] protease complexes, derived from the BMS strain, H77 strain or J4L6S strain, were generated, as described below. These purified recombinant proteins were generated for use in a homogeneous assay (see below) to provide an indication of how effective compounds of the present disclosure would be in inhibiting HCV NS3 proteolytic activity.
(§2) Serum from an HCV-infected patient was obtained from Dr. T. Wright, San Francisco Hospital. An engineered full-length cDNA (compliment deoxyribonucleic acid) template of the HCV genome (BMS strain) was constructed from DNA fragments obtained by reverse transcription-PCR (RT-PCR) of serum RNA (ribonucleic acid) and using primers selected on the basis of homology between other genotype 1a strains. From the determination of the entire genome sequence, a genotype 1a was assigned to the HCV isolate according to the classification of Simmonds et al. (See Simmonds, P. et al., J. Clin. Microbiol., 31(6), 1493-1503 (1993)). […] The infectious clones, H77 (1a genotype) and J4L6S (1b genotype) were obtained from R. Purcell (NIH) and the sequences are published in GENBANK® (AAB67036, see Yanagi, M. et al., Proc. Natl. Acad. Sci. U.S.A., 94(16):8738-8743 (1997); AF054247, see Yanagi, M. et al., Virology, 244(1):161-172 (1998)).
(§3) The H77 and J4L6S strains were used for production of recombinant NS3/4A protease complexes. DNA encoding the recombinant HCV NS3/4A protease complex (amino acids 1027 to 1711) for these strains were manipulated as described by P. Gallinari et al. (see Gallinari, P. et al, Biochemistry, 38(17):5620-5632 (1999)). Briefly, a three-lysine solubilizing tail was added at the 3′-end of the NS4A coding region. The cysteine in the P1 position of the NS4A-NS4B cleavage site (amino acid 1711) was changed to a glycine to avoid the proteolytic cleavage of the lysine tag. Furthermore, a cysteine to serine mutation was introduced by PCR at amino acid position 1454 to prevent the autolytic cleavage in the NS3 helicase domain. The variant DNA fragment was cloned in the pET21b bacterial expression vector (Novagen) and the NS3/4A complex was expressed in Escherichia. coli strain BL21 (DE3) (Invitrogen) following the protocol described by P. Gallinari et al. (see Gallinari, P. et al., J. Virol., 72(8):6758-6769 (1998)) with modifications. Briefly, the NS3/4A protease complex expression was induced with 0.5 millimolar (mM) Isopropyl β-D-1-thiogalactopyranoside (IPTG) for 22 hours (h) at 20° C. A typical fermentation (1 Liter (L)) yielded approximately 10 grams (g) of wet cell paste. The cells were resuspended in lysis buffer (10 mL/g) consisting of 25 mM N-(2-hydroxyethyl)piperazine-N′-(2-ethane sulfonic acid) (HEPES), pH 7.5, 20% glycerol, 500 mM sodium chloride (NaCl), 0.5% Triton X-100, 1 microgram/milliliter (“μg/mL”) lysozyme, 5 mM magnesium chloride (MgCl2), 1 μg/ml DnaseI, 5 mM β-mercaptoethanol (βME), protease inhibitor-ethylenediamine tetraacetic acid (EDTA) free (Roche), homogenized and incubated for 20 minutes (min) at 4° C. The homogenate was sonicated and clarified by ultra-centrifugation at 235000 g for 1 hour (h) at 4° C. Imidazole was added to the supernatant to a final concentration of 15 mM and the pH adjusted to 8.0. The crude protein extract was loaded on a Nickel-Nitrilotriacetic acid (Ni-NTA) column pre-equilibrated with buffer B (25 mM HEPES, pH 8.0, 20% glycerol, 500 mM NaCl, 0.5% Triton X-100, 15 mM imidazole, 5 mM βME). The sample was loaded at a flow rate of 1 mL/min. The column was washed with 15 column volumes of buffer C (same as buffer B except with 0.2% Triton X-100). The protein was eluted with 5 column volumes of buffer D (same as buffer C except with 200 mM Imidazole).
(§4) NS3/4A protease complex-containing fractions were pooled and loaded on a desalting column Superdex-S200 pre-equilibrated with buffer D (25 mM HEPES, pH 7.5, 20% glycerol, 300 mM NaCl, 0.2% Triton X-100, 10 mM βME). Sample was loaded at a flow rate of 1 mL/min. […]
T1 sequence (P27958 1027-1657, stated change not applied, one chain of several): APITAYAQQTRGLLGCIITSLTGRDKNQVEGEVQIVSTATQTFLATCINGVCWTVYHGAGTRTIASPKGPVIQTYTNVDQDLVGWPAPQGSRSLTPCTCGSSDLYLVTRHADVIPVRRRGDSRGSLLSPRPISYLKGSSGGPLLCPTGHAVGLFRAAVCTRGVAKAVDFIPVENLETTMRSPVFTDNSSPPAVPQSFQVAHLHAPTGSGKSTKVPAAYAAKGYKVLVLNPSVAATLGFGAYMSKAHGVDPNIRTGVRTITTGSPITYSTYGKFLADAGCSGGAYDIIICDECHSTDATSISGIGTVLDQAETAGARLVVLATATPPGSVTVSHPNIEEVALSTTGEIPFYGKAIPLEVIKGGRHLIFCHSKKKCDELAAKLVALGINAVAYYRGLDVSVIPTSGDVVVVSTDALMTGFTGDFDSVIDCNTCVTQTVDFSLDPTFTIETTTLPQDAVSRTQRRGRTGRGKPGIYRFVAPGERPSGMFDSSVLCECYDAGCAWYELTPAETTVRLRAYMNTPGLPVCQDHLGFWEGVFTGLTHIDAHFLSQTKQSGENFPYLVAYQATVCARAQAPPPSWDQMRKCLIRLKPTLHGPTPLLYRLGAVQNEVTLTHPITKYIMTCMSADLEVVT

[2] = molecular target: T2, HCV NS3/4A protease complex, BMS strain (UniProt P27958, species not given/STRAIN_BMS); assay: as above; type: biochemical, Hepatitis C virus (genotype 1a); settings: read-out: IC50 against the NS3/4A BMS strain in the enzyme assay; BMS strain
T2 construct: other: BMS strain; said of H77 and J4L6S; fused on or other part: three-lysine solubilising tail at the end of NS4A (printed for the H77 and J4L6S constructs; probably the same for BMS)
Source text: as §1, §2, §3, §4
T2 sequence (P27958 1027-1657, stated change not applied, one chain of several): as above

SMILES: C=C[C@@H]1C[C@]1(NC(=O)[C@@H]1C[C@@](SCCCC)(c2ccc(-c3ccccc3)cc2)CN1C(=O)[C@@H](NC(=O)OC(C)(C)C)C(C)(C)C)C(=O)NS(=O)(=O)C1CC1 [Example 1, tert-butyl (S)-1-((2S,4R)-4-(biphenyl-4-yl)-4-(butylthio)-2-((1R,2S)-1-(cyclopropylsulfonylcarbamoyl)-2-vinylcyclopropylcarbamoyl)pyrrolidin-1-yl)-3,3-dimethyl-1-oxobutan-2-ylcarbamate]
- pIC50 [1]: 8.52
- pIC50 [2]: 8.34
